This data set relates to L6 rat myoblasts. The data set is described as follows: OCR Seahorse assay (oxygen consumption rate, mitochondrial uncoupling). The settings on record: for Emax at 200 µM: L6, read-out: % of BAM15 OCR, L6 myoblasts; for Emax at 200 µM / % of BAM15 OCR: integrated area under OCR dose curve above baseline relative to BAM15 of same experiment; for uncoupling (OCR) activity in words / cellular toxicity in OCR assay / % of BAM15 OCR: L6 myoblasts; for cellular toxicity in OCR assay: at higher concentrations.

[1] abbreviates: Rattus norvegicus, NA = No Activity, highest tested concentration 200 μM.
Setting [2] is: NA = No Activity, highest tested concentration 200 μM.
The mark [3] stands for this setting: OCR in L6 myoblasts, NA = No Activity, highest tested concentration 200 μM.

A value given as a limit tells only on which side of the number the result lay.

Method: With 7 and 9 derivatives in hand, we screened for mitochondrial uncoupling activity as a function of oxygen consumption rate (OCR). […] OCR was measured using an Agilent Seahorse XF24 or XFe96 Analyzer (Agilent Technologies, Santa Clara, CA). L6 myoblasts were seeded in a Seahorse 24 or 96-well tissue culture plate at a density of 3.5 × 10^4 cells/well. The cells were then allowed to adhere overnight. […] Compounds were injected during the assay, and OCR was measured using 2 min measurement periods. Cells were treated with a single drug concentration per well and measured over a 90 min period. Two wells were used per condition and, where applicable, results from multiple plates were averaged together. The first three measurements after injection for each concentration were averaged to produce a dose curve. […] AUC values were also calculated using the same software.

The EC50 is the concentration that produces a half-maximal response. Low readings indicate an effect from little substance, high ones a need for much substance. For `Oc1c(Nc2ccc(-c3cc(C(F)(F)F)cc(C(F)(F)F)c3)cc2)cnc2nonc12` [7aw, 6-((3′,5′-Bis(trifluoromethyl)-[1,1′-biphenyl]-4-yl)amino)-[1,2,5]oxadiazolo[3,4-b]pyridin-7-ol], the concentration giving a half-maximal response (EC50) (Rattus norvegicus, L6) came to 41 ± 4.9 µM. Also, the Emax at 200 µM under setting [1] amounted to 20%.
`Oc1c(-c2ccccc2F)cnc2nonc12` [9a, 6-(2-Fluorophenyl)-[1,2,5]oxadiazolo[3,4-b]pyridin-7-ol] returned a concentration for a half-maximal effect (EC50) (Rattus norvegicus, L6) of 27 ± 2.8 µM. In addition, the Emax at 200 µM under setting [1] is 69%.
In the same order, the values of `Oc1c(Nc2c(F)c(F)c(F)c(F)c2F)cnc2nonc12` [7z, 6-((Perfluorophenyl)amino)-[1,2,5]oxadiazolo[3,4-b]pyridin-7-ol] are 18 ± 2.4 µM and 50%.
The compound `Cc1ccc(Nc2cnc3nonc3c2O)cc1` [7b, 6-(p-Tolylamino)-[1,2,5]oxadiazolo[3,4-b]pyridin-7-ol] yielded a concentration for a half-maximal effect (EC50) (Rattus norvegicus, L6) of 49 µM. Also, the Emax at 200 µM under setting [1] stood at 38%.
`Oc1c(Nc2cc(F)ccc2F)cnc2nonc12` [7v, 6-((2,5-Difluorophenyl)amino)-[1,2,5]oxadiazolo[3,4-b]pyridin-7-ol] came in with an EC50 (Rattus norvegicus, L6) of 64 ± 5.3 µM. Besides, under setting [1], the Emax at 200 µM stood at 69%.
With `Oc1c(-c2ccc(C(F)(F)F)nc2)cnc2nonc12` [7l, 6-(6-(Trifluoromethyl)pyridin-3-yl)-[1,2,5]oxadiazolo[3,4-b]pyridin-7-ol], the “uncoupling (OCR) activity in words” value is “inactive”.
For `Oc1c(Nc2c(F)cccc2F)cnc2nonc12` [7w, 6-((2,6-Difluorophenyl)amino)-[1,2,5]oxadiazolo[3,4-b]pyridin-7-ol], the EC50 (Rattus norvegicus, L6) amounted to 52 ± 8.8 µM. In addition, under setting [1], the Emax at 200 µM was 54%.
`Oc1c(Nc2cc(F)cc(C(F)(F)F)c2)cnc2nonc12` [7ag, 6-((3-Fluoro-5-(trifluoromethyl)phenyl)amino)-[1,2,5]oxadiazolo[3,4-b]pyridin-7-ol] displayed a concentration giving a half-maximal response (EC50) (Rattus norvegicus, L6) of 40 ± 0.9 µM. For the same compound, under setting [1], the Emax at 200 µM is 38%.
`Oc1c(-c2cccc(Cl)c2)cnc2nonc12` [9c, 6-(3-Chlorophenyl)-[1,2,5]oxadiazolo[3,4-b]pyridin-7-ol] came in with an EC50 (Rattus norvegicus, L6) of 25 ± 3.1 µM. Besides, the Emax at 200 µM under setting [1] amounted to 61%.
In the same order, the values of `Oc1c(Nc2ccccc2)cnc2nonc12` [7a, 6-(Phenylamino)-[1,2,5]oxadiazolo[3,4-b]pyridin-7-ol] are 59 ± 3.4 µM and 40%.
On the same counts, the results for `Oc1c(Nc2ccc(F)cc2F)cnc2nonc12` [7u, 6-((2,4-Difluorophenyl)amino)-[1,2,5]oxadiazolo[3,4-b]pyridin-7-ol] are 40 ± 1.9 µM and 83%.
In the same order, the values of `Oc1c(Nc2cc(C(F)(F)F)ccc2F)cnc2nonc12` [7ac, 6-((2-Fluoro-5-(trifluoromethyl)phenyl)amino)-[1,2,5]oxadiazolo[3,4-b]pyridin-7-ol] are 11 ± 6.7 µM and 55%.
As for `Oc1c(-c2cccs2)cnc2nonc12` [9g, 6-(Thiophen-2-yl)-[1,2,5]oxadiazolo[3,4-b]pyridin-7-ol], the “uncoupling (OCR) activity in words” value is on record as “poor activity”. Also, for the setting “Rattus norvegicus, L6”, the midpoint of the response, the EC50, lay at 40 ± 0.3 µM. Besides, the Emax at 200 µM under setting [1] was 36%.
Under “Rattus norvegicus, L6”, `Oc1c(Nc2c(F)cccc2C(F)(F)F)cnc2nonc12` [7ad, 6-((2-Fluoro-6-(trifluoromethyl)phenyl)amino)-[1,2,5]oxadiazolo[3,4-b]pyridin-7-ol] came in with an EC50 of 28 ± 3.9 µM. Moreover, the Emax at 200 µM under setting [1] turned out to be 55%.
As for `CC(C)(C#N)c1ccc(Nc2cnc3nonc3c2O)cc1` [7g, 2-(4-((7-Hydroxy-[1,2,5]oxadiazolo[3,4-b]pyridin-6-yl)amino)phenyl)-2-methylpropanenitrile], the EC50 (Rattus norvegicus, L6) is > 100 µM. The Emax at 200 µM under setting [1] was determined as 10%.
On the same counts, the results for `Oc1c(Nc2cc(F)ccc2C(F)(F)F)cnc2nonc12` [7af, 6-((5-Fluoro-2-(trifluoromethyl)phenyl)amino)-[1,2,5]oxadiazolo[3,4-b]pyridin-7-ol] are 25 ± 12 µM and 54%.
`Oc1c(Nc2cc(C(F)(F)F)c(F)cc2F)cnc2nonc12` [7ae, 6-((2,4-Difluoro-5-(trifluoromethyl)phenyl)amino)-[1,2,5]oxadiazolo[3,4-b]pyridin-7-ol]: where the note is “Rattus norvegicus, L6”, the concentration for a half-maximal effect (EC50) turned out to be 40 ± 4.5 µM. The Emax at 200 µM under setting [1] turned out to be 48%.
In the same order, the values of `Oc1c(Nc2ccc(F)cc2)cnc2nonc12` [7o, 6-((4-Fluorophenyl)amino)-[1,2,5]oxadiazolo[3,4-b]pyridin-7-ol] are > 100 µM and 32%.
On to `CCCCc1ccc(Nc2cnc3nonc3c2O)cc1` [7d, 6-((4-Butylphenyl)amino)-[1,2,5]oxadiazolo[3,4-b]pyridin-7-ol], for which the Emax at 200 µM under setting [1] stood at 19%.
Under “Rattus norvegicus, L6”, `Oc1c(Nc2ccc(F)c(F)c2)cnc2nonc12` [7x, 6-((3,4-Difluorophenyl)amino)-[1,2,5]oxadiazolo[3,4-b]pyridin-7-ol] displayed an EC50 of 63 ± 3.7 µM. The Emax at 200 µM under setting [1] worked out at 55%.
In the same order, the values of `Oc1c(Nc2cccc(Cl)c2F)cnc2nonc12` [7aa, 6-((3-Chloro-2-fluorophenyl)amino)-[1,2,5]oxadiazolo[3,4-b]pyridin-7-ol] are 32 ± 1.9 µM and 68%.
On to `Oc1c(Nc2ccc(-c3ccccc3F)cc2)cnc2nonc12` [7ak, 6-((2′-Fluoro-[1,1′-biphenyl]-4-yl)amino)-[1,2,5]oxadiazolo[3,4-b]pyridin-7-ol], for which the “uncoupling (OCR) activity in words” value is “not tolerated”.
Regarding `Oc1c(-c2cccc(C(F)(F)F)c2)cnc2nonc12` [9d, 6-(3-(Trifluoromethyl)phenyl)-[1,2,5]oxadiazolo[3,4-b]pyridin-7-ol], the “cellular toxicity in OCR assay” value is on record as “exhibited cellular toxicity at higher concentrations”. Where the note is “Rattus norvegicus, L6”, this compound displayed a concentration for a half-maximal effect (EC50) of 26 ± 4.5 µM. The Emax at 200 µM under setting [1] worked out at 59%.
For the compound `Oc1c(Nc2ccc(F)nc2)cnc2nonc12` [7k, 6-((6-Fluoropyridin-3-yl)amino)-[1,2,5]oxadiazolo[3,4-b]pyridin-7-ol], the “uncoupling (OCR) activity in words” value is “inactive”.
`Oc1c(Nc2ccccc2Cl)cnc2nonc12` [7p, 6-((2-Chlorophenyl)amino)-[1,2,5]oxadiazolo[3,4-b]pyridin-7-ol] showed an EC50 (Rattus norvegicus, L6) of 27 ± 1.9 µM. In addition, under setting [1], the Emax at 200 µM is 69%.
In the same order, the values of `Oc1c(Nc2cccc(F)c2F)cnc2nonc12` [7t, 6-((2,3-Difluorophenyl)amino)-[1,2,5]oxadiazolo[3,4-b]pyridin-7-ol] are 64 ± 3.3 µM and 60%.
On the same counts, the results for `Oc1c(Nc2ccc(-c3ccccc3)cc2F)cnc2nonc12` [7ah, 6-((3-Fluoro-[1,1′-biphenyl]-4-yl)amino)-[1,2,5]oxadiazolo[3,4-b]pyridin-7-ol] are 2 ± 0.5 µM and 10%.
Turning to “6-([1,1′-Biphenyl]-2-ylamino)-[1,2,5]oxadiazolo[3,4-b]pyridin-7-ol [7aj]”, the “% of BAM15 OCR” value under setting [2] amounted to 20%. Also, a half-maximal effect under setting [3] (EC50) was put at 6 ± 1.2 µM.
Compound `Oc1c(Nc2ccc3ccccc3c2)cnc2nonc12` [7ax, 6-(Naphthalen-2-ylamino)-[1,2,5]oxadiazolo[3,4-b]pyridin-7-ol] gave a concentration giving a half-maximal response (EC50) (Rattus norvegicus, L6) of 13 ± 1.2 µM. Moreover, the Emax at 200 µM under setting [1] was 48%.
As for `Oc1c(Nc2ccc(-c3ccc(C(F)(F)F)nc3)cc2)cnc2nonc12` [7ar, 6-((4-(6-(Trifluoromethyl)pyridin-3-yl)phenyl)amino)-[1,2,5]oxadiazolo[3,4-b]pyridin-7-ol], for the setting “Rattus norvegicus, L6”, a half-maximal effect (EC50) was put at 7 ± 1.9 µM. Also, the Emax at 200 µM under setting [1] was determined as 17%.
For the compound `Oc1c(Nc2ccc(-c3cccc(C(F)(F)F)c3)cc2)cnc2nonc12` [7an, 6-((3′-(Trifluoromethyl)-[1,1′-biphenyl]-4-yl)amino)-[1,2,5]oxadiazolo[3,4-b]pyridin-7-ol], the “cellular toxicity in OCR assay” value is “showed cellular toxicity at higher concentrations”. For the setting “Rattus norvegicus, L6”, this compound had an EC50 of 0.5 ± 0.1 µM. Moreover, the Emax at 200 µM under setting [1] amounted to 25%.
Take `Oc1c(Nc2ccc(C(F)(F)F)cc2)cnc2nonc12` [7s, 6-((4-(Trifluoromethyl)phenyl)amino)-[1,2,5]oxadiazolo[3,4-b]pyridin-7-ol]: where the note is “Rattus norvegicus, L6”, the EC50 stood at 35 ± 1.7 µM. Moreover, under setting [1], the Emax at 200 µM came out at 43%.
In the same order, the values of `Oc1c(Nc2cccc(F)c2)cnc2nonc12` [7n, 6-((3-Fluorophenyl)amino)-[1,2,5]oxadiazolo[3,4-b]pyridin-7-ol] are 51 ± 2.6 µM and 55%.
Regarding `Oc1c(Nc2ccccc2F)cnc2nonc12` [7m, 6-((2-Fluorophenyl)amino)-[1,2,5]oxadiazolo[3,4-b]pyridin-7-ol], the “increase of BAM15 uncoupling capability compared with the nonsubstituted aniline” value (7m versus 7a) is given as 72%. Moreover, the response (Rattus norvegicus, L6) was half-maximal at 32 ± 1.8 µM (EC50). Moreover, the Emax at 200 µM under setting [1] came to 69%.
In the case of `CCc1ccc(Nc2cnc3nonc3c2O)cc1` [7c, 6-((4-Ethylphenyl)amino)-[1,2,5]oxadiazolo[3,4-b]pyridin-7-ol], the 50% effective concentration (EC50) (Rattus norvegicus, L6) is 14 ± 1.7 µM. In addition, under setting [1], the Emax at 200 µM turned out to be 50%.
On the same counts, the results for `Oc1c(Nc2ccccc2C(F)(F)F)cnc2nonc12` [7q, 6-((2-(Trifluoromethyl)phenyl)amino)-[1,2,5]oxadiazolo[3,4-b]pyridin-7-ol] are 34 ± 4 µM and 57%.
Consider `Oc1c(Nc2ccc(F)c(F)c2F)cnc2nonc12` [7y, 6-((2,3,4-Trifluorophenyl)amino)-[1,2,5]oxadiazolo[3,4-b]pyridin-7-ol], for which, for the setting “Rattus norvegicus, L6”, the EC50 was 44 ± 3.6 µM. The Emax at 200 µM under setting [1] stood at 68%.
In the case of `Oc1c(-c2ccccc2Cl)cnc2nonc12` [9b, 6-(2-Chlorophenyl)-[1,2,5]oxadiazolo[3,4-b]pyridin-7-ol], for the setting “Rattus norvegicus, L6”, the midpoint of the response, the EC50, lay at 85 ± 16 µM. Besides, under setting [1], the Emax at 200 µM worked out at 49%.
Turning to “6-((4-Butoxyphenyl)amino)-[1,2,5]oxadiazolo[3,4-b]pyridin-7-ol [7f]”, under setting [2], the “% of BAM15 OCR” value was 20%. Also, the EC50 under setting [3] came out at 6 µM.
The compound `Oc1c(Nc2cccc(C(F)(F)F)c2)cnc2nonc12` [7r, 6-((3-(Trifluoromethyl)phenyl)amino)-[1,2,5]oxadiazolo[3,4-b]pyridin-7-ol] yielded an EC50 (Rattus norvegicus, L6) of 22 ± 1.8 µM. The Emax at 200 µM under setting [1] amounted to 48%.

These data come from paper PMC11647902, “Design, Synthesis, and Biological Evaluation of [1,2,5]Oxadiazolo[3,4-b]pyridin-7-ol as Mitochondrial Uncouplers for the Treatment of Obesity and Metabolic Dysfunction-Associated Steatohepatitis” (Journal of Medicinal Chemistry, 2024).
